Experimental data as given in US6432960B1, “Squarate derivatives of dihydropyridine NPY antagonists” (Bristol-Myers Squibb Company, priority 2000, dated 2002).

Legend:
NPY Y1 receptors = target: T1, NPY Y1 receptors (Homo sapiens, UniProt P25929); assay: Binding affinity at NPY Y1 receptors in SK-N-MC cell membranes, iodine-125-labeled I-PYY radioligand; conditions: SK-N-MC (human neuroblastoma) cell membranes; 125I-PYY radioligand
T1 construct: assayed in SK-N-MC (human neuroplastoma) cell membranes; endogenous in cells; host or cells: SK-N-MC (human neuroblastoma) cell membranes
T1 sequence (P25929 1-384): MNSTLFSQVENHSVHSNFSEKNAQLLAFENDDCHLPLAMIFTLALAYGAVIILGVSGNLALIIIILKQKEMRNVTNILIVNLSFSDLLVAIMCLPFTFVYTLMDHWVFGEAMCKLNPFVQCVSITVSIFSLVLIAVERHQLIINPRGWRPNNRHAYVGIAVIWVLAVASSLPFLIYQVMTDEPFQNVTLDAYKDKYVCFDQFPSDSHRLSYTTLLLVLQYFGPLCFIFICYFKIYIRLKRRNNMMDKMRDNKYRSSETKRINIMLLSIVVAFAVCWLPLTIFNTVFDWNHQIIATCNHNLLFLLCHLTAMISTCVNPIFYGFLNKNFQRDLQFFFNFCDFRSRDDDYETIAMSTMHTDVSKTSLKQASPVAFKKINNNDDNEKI
Description: This pharmacologic activity is assayed in SK-N-MC (human neuroblastoma) cell membranes using iodine-125-labeled I-PYY as a radioligand. […] These types of dihydropyridines have significant affinity for α1-adrenergic receptors and/or Ca^++ channels.
The following examples set forth the process for producing various squarate derivatives of the dihydropyridine. The binding affinities were determined at NPY Y1 receptors. The pharmacologic activity was assayed in SK-N-MC (human neuroblastoma) cell membranes using iodine-125-labeled 1-PYY as ratio ligand. Examples 1 and 2 are directed to the production of the intermediates. Examples 3-6 are directed to the process of producing the squarate derivatives.
The compounds of Examples 1-6 were tested for binding affinity at NPY Y1 receptors. The pharmacologic activity was assayed in SK-N-MC (human neuroplastoma) cell membranes using iodine-125 labeled I-PYY as a radioligand.

Row | SMILES | IC50 (NPY Y1 receptors) | melting point
1 | COC(=O)C1=C(C)NC(C)=C(C(=O)OC)C1c1ccc(F)c(Nc2c(NCCCN3CCN(C4CCCCC4)CC3)c(=O)c2=O)c1 [Example 6, 4-[3-[[2-[[3-(4-cyclohexyl-1-piperazinyl)propyl]amino]-3,4-dioxo-1-cyclobuten-1-yl]amino]-4-fluorophenyl]-1,4-dihydro-2,6-dimethyl-3,5-pyridinedicarboxylic Acid, Dimethyl Ester] | 950 nM | 229 to 230 °C
2 | COC(=O)C1=C(C)NC(C)=C(C(=O)OC)C1c1cccc(Nc2c(NCCCN3CCN(C4CCCCC4)CC3)c(=O)c2=O)c1 [Example 5, 4-[3-[[2-[[3-(4-cyclohexyl-1-piperazinyl)propyl]amino]-3,4-dioxo-1-cyclobuten-1-yl]amino]phenyl]-1,4-dihydro-2,6-dimethyl-3,5-pyridinedicarboxylic Acid, Dimethyl Ester] | 140 nM | 210 to 212 °C
3 | CCOc1c(Nc2cccc(C3C(C(=O)OC)=C(C)NC(C)=C3C(=O)OC)c2)c(=O)c1=O [Example 1, 4-[3-[(2-Ethoxy-3,4-dioxo-1-cyclobuten-1-yl)amino]phenyl]-1,4-dihydro-2,6-dimethyl-3,5-pyridinedicarboxylic Acid, Dimethyl Ester] | > 1000 nM | 249 to 252 °C
4 | CCOc1c(Nc2cc(C3C(C(=O)OC)=C(C)NC(C)=C3C(=O)OC)ccc2F)c(=O)c1=O [Example 2, 4-[3-[(2-Ethoxy-3,4-dioxo-1cyclobuten-1-yl)amino]-4-fluorophenyl]-1,4-dihydro-2,6-dimethyl-3,5-pyridinedicarboxylic Acid, Dimethyl Ester] | > 1000 nM | 203 to 205 °C
5 | COC(=O)C1=C(C)NC(C)=C(C(=O)OC)C1c1ccc(F)c(Nc2c(NCCCN3CCC(c4cccc(OC)c4)CC3)c(=O)c2=O)c1 [Example 4, 4-[4-Fluoro-3-[[2-[[3-[4-(3-methoxyphenyl)-1-piperidinyl]propyl]amino]-3,4-dioxo-1-cyclobuten-1-yl]amino]phenyl]-1,4-dihydro-2,6-dimethyl-3,5-pyridinedicarboxylic Acid, Dimethyl Ester] | 65.8 nM | 205 to 207 °C
6 | COC(=O)C1=C(C)NC(C)=C(C(=O)OC)C1c1cccc(Nc2c(NCCCN3CCC(c4cccc(OC)c4)CC3)c(=O)c2=O)c1 [Example 3, 1,4-Dihydro-4-[3-[[2-[[3-[4-(3-methoxyphenyl)-1-piperidinyl]propyl]amino]-3,4-dioxo-1-cyclobuten-1-yl]amino]phenyl]-2,3-dimethyl-3,5-pyridinedicarboxylic Acid, Dimethyl Ester] | 24.6 nM | 
